How the values were obtained:
[1] = tested on: ID188 patient-derived PDAC 2D line (pre-FOLFIRINOX); assay: normalised area under dose-response curve (viability relative to DMSO, 7 doses up to 10 µM) (fraction (AUC)); higher = less sensitive (more viability retained); settings: 72 h; top dose: 10 µM
How it was run: (§1)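 A robot plated 1,500–3,000 cells/well of patient-derived 2D PDAC cells, outgrown from organoids, into 96-well plates, followed by overnight incubation at 37°C, 5% CO2. The cells were exposed for 72 h to SelleckChem library compounds at seven 3-fold-diluted concentrations up to 10 µM, and CellTiter-Glo luminescence was read after 10 min. Area under the dose-response curve came from the GRmetrics R package, with viability normalised to control wells.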

[2] = tested on: ID211 patient-derived PDAC 2D line (post-FOLFIRINOX); assay: as above; settings: 72 h; top dose: 10 µM
How it was run: as §1

SMILES	normalised area under dose-response curve [1]	normalised area under dose-response curve [2]
O=C(Nc1cccc(Nc2ncc(Br)c(NCCc3cnc[nH]3)n2)c1)N1CCCC1 [BX-912]	0.595	0.893
C=CC(=O)Nc1cccc(Oc2nc(Nc3ccc(N4CCN(C)CC4)cc3)nc3ccsc23)c1	0.921	0.75
Cc1ccc2nc(CN(CCN(Cc3nc4ccc(C)cc4[nH]3)Cc3nc4ccc(C)cc4[nH]3)Cc3nc4ccc(C)cc4[nH]3)[nH]c2c1	1.03	0.676
Cn1cc(/C=C2\C(=O)Nc3cccnc32)c2ccccc21	0.94	0.914
COc1ccc(-c2cc3nccn3c(Nc3ncccc3C(N)=O)n2)cc1OC [BAY-61-3606]	0.871	0.79
CN(C(=O)c1ccc(F)cc1C(F)(F)F)C1CCN(c2nnc(-c3ccnn3C)c3ccccc23)CC1	0.939	0.855
CCN1C(=O)CNc2ncc(-c3ccc(-c4nc[nH]n4)nc3C)nc21 [CC-115]	0.718	0.7
Cn1c(=O)cc(N2CCC[C@@H](N)C2)n(Cc2ccccc2C#N)c1=O [Alogliptin]	0.952	0.817
C[C@H]1CNC(=O)c2cnn3ccc(nc23)N[C@H](C)c2cc(F)ccc2O1 [TPX-0005]	0.777	0.728
Cc1nc(NC(=O)N2CCC[C@H]2C(N)=O)sc1-c1ccnc(C(C)(C)C(F)(F)F)c1 [Alpelisib (BYL719)]	0.892	0.696
NCCCC[C@H](NC(=O)[C@@H](NC(=O)[C@H](Cc1c[nH]c2ccccc12)NC(=O)[C@H](CCCCN)NC(=O)[C@H](CCCCN)NC(=O)[C@H](Cc1c[nH]c2ccccc12)NC(=O)[C@H](Cc1c[nH]c2ccccc12)NC(=O)[C@H](CCCCN)NC(=O)[C@@H](N)CCCCN)C(c1ccccc1)c1ccccc1)C(N)=O [LTX-315]	0.943	0.804
O=C(O)CC[C@H]1CC[C@@](c2cc(F)ccc2F)(S(=O)(=O)c2ccc(Cl)cc2)CC1 [MK-0752]	0.888	0.83
CNc1nc(-c2ccc3c(N)n[nH]c3c2)cc(N2C[C@@H](C(=O)NC3CCCCC3)CC[C@H]2C)n1	0.869	0.71
CN(C(=O)CNC(=O)/C=C/c1cccc(Cl)c1)C1CCS(=O)(=O)CC1 [ML264]	0.796	0.894
NC(=O)c1ccc(I)c([N+](=O)[O-])c1 [Iniparib (BSI-201)]	0.939	0.952
CS(=O)(=O)c1ccc(-c2cnc(NCc3ccco3)n3cnnc23)cc1 [EED226]	0.955	0.846
COc1cc2c(cc1OC(C)C)[C@H](c1ccc(Cl)cc1)N(c1ccc(N(C)C[C@H]3CC[C@H](N4CCN(C)C(=O)C4)CC3)cc1)C(=O)C2 [NVP-CGM097]	0.988	0.72
CN(NC(=O)CC(=O)NN(C)C(=S)c1ccccc1)C(=S)c1ccccc1 [Elesclomol (STA-4783)]	0.179	0.0189
CNS(=O)(=O)Nc1nccc(Cc2c(C)c3ccc(Oc4ncccn4)cc3oc2=O)c1F	0.679	0.409
CN1CCN(C(=O)/C=C/c2ccc([N+](=O)[O-])o2)CC1	0.954	0.937

SMILES	normalised area under dose-response curve [1]	normalised area under dose-response curve [2]
O=S(=O)(O)c1ccc2cc(N=Nc3cc(S(=O)(=O)O)c4cccnc4c3O)ccc2c1	0.938	0.831
O=C(O)c1ccc(-c2c[nH]c3ncc(-c4ccccc4)cc23)cc1C1CCCC1	0.924	0.913
CCC[C@H](NC(=O)/C(C#N)=C/c1cccc(Br)n1)c1ccccc1 [Degrasyn (WP1130)]	0.869	0.82
O=C(CSc1nc2c(c(=O)n1-c1ccccc1)SCC2)Nc1ccc(-c2ccccc2)cn1 [IWP-L6]	0.968	0.804
CC(C)(C)Cn1c(N)nc2ccc(-c3[nH]c(C(C)(C)C)nc3-c3ccc(F)cc3)nc21	0.992	0.862
CC(=O)N1CCC[C@H]1C(=O)N[C@@H](Cc1cnc[nH]1)C(=O)N[C@@H](CO)C(=O)N[C@@H](CS)C(=O)N[C@@H](CC(N)=O)C(N)=O [ATN-161 (Ac-PHSCN-NH2)]	1	0.858
Cc1ccc(C(=O)Nc2cccc(C(F)(F)F)c2)cc1Nc1nc(-c2cccnc2)nc2c1cnn2C [NVP-BHG712]	0.869	0.831
CC(C)(CO)c1cc2cc(NC(=O)C3(c4ccc5c(c4)OC(F)(F)O5)CC3)c(F)cc2n1C[C@@H](O)CO [Tezacaftor(VX-661)]	0.925	1.02
CC[C@H](C)n1cc(C)c2c(C(=O)NCc3c(C)cc(C)[nH]c3=O)cc(-c3ccc(N4CCNCC4)nc3)cc21 [GSK126]	1.02	0.95
Cc1[nH]nc(C(F)(F)F)c1Cc1sc2c(c1C(=O)N1C[C@](C)(O)CO1)c(=O)n(C)c(=O)n2C(C)C [AZD3965]	0.937	0.89
NS(=O)(=O)c1ccc(NC(=O)Nc2ccc(F)cc2)cc1 [U-104]	0.94	0.976
Cc1c(NC(=O)c2cc(C(N)=O)nc3cc(F)ccc23)c(C(F)(F)F)nn1Cc1ccc(C#N)cc1 [BAY-876]	0.826	0.718
Cc1cc2c3c([n+](C)c4ccc(F)cc4c3c1)-c1cc(F)ccc1N2C [RHPS 4 methosulfate]	0.945	0.906
Cc1cnc(NC(=O)Nc2cc(Br)c(C)cc2OC[C@@H]2CNCCO2)cn1	0.731	0.869
O=C(Cc1ccccc1)Nc1nnc(CCSCCc2nnc(NC(=O)Cc3ccccc3)s2)s1 [BPTES]	0.861	0.854
CCN(c1cc(-c2ccc(CN3CCOCC3)cc2)cc(C(=O)NCc2c(C)cc(C)[nH]c2=O)c1C)C1CCOCC1 [Tazemetostat (EPZ-6438)]	0.863	0.716
COc1cc(OC)c(/C=C/S(=O)(=O)Cc2ccc(OC)c(NCC(=O)O)c2)c(OC)c1	0.746	0.557
Nc1nc(NC2CC2)cc(-c2cccc(Cl)c2Cl)n1 [TH588]	0.914	0.918
COc1ccc(-c2ccc3c(N4CCOCC4)nc(N4C[C@@H](C)O[C@@H](C)C4)nc3n2)cc1CO	0.825	0.831
Cc1cc(C)c(CNC(=O)c2cc(-c3ccc(CN4CCOCC4)cc3)cc3c2cnn3C2CCCC2)c(=O)[nH]1	0.896	0.812

Reference: the supplement of paper PMC8988213
